Measurements: patent US8389526B2, “3-heteroarylmethyl-imidazo[1,2-b]pyridazin-6-yl derivatives” (Novartis AG, priority 2009, dated 2013)
Values after ≈ are worked out from the molar mass of the structure shown. Like-named read-outs stand apart in the source and are kept apart here.

How the values were obtained:
[1] = tested on: MET-amplified gastric cancer cell line GTL-16; assay: GTL-16 proliferation assay (MTS); format: cell-based; details: Homo sapiens, GTL-16 cells, 72 h incubation
How it was run: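 GTL-16 cells were seeded at 3000/well in DMEM with 10% FCS. After 24 h they were treated in triplicate with a 10-point, 3-fold dilution series ([…]; DMSO-only control) for 72 h. Viable cells were measured by MTS, with OD 490 nm read after 30 min.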

[2] = Solubility assay at pH 7 and in FaSSIF; format: physicochemical; details: thermodynamic from solid
Method: A number of compounds of the present invention were assayed in a solubility assay at pH 7 and in fasted state simulated intestinal fluid (FaSSIF).
Solubility of the compounds was determined by suspending about 0.3 to 1.0 mg of drug substance in 0.1 mL of phosphate buffer at pH 7 and respectively FaSSIF.
Buffer pH 7 was obtained from MERCK as Tritisol® Phosphate Buffer. The Medium to Simulate the Fasted State Upper Small Intestine (Fasted State Simulated Intestinal Fluid) or FaSSIF was developed according to J. Dressmann publication Jantratid Ekarat; Janssen Niels; Reppas Christos; Dressman Jennifer B Dissolution media simulating conditions in the proximal human gastrointestinal tract: an update. Pharmaceutical research (2008), 25(7), 1663-76.
Composition from the FaSSIF is described in the following Table 3.
The suspensions or solutions were stirred over night at room temperature. After separation of the un-dissolved part by filtration (centrifugation using 0.45 μm PVDF or PTFE filters), the solutions were if necessary, diluted with acetonitrile to obtain concentrations below 1.0 mg/mL prior to UPLC analysis. Samples were then analyzed by UPLC to get the concentrations level of compound in the different media. Prior to analysis a method has been developed for each compound with an according calibration.
UPLC parameters: Column Aquity50*2.1 mm C18 1.7ym; Column temperature: 40° C.; mobile phase A: water MilliQ+0.1% TFA and B acetonitrile, gradient grade, +0.1% TFA.

[3] = FaSSIF (fasted state simulated intestinal fluid), fassif, fasted state simulated intestinal fluid, stirred over night at room temperature, read-out: Solubility FaSSIF
[4] = aqueous buffer, phosphate buffer pH 7, stirred over night at room temperature, read-out: Solubility Buffer pH 7

| SMILES | IC50 [1] [nM] | solubility [2, 3] [µg/mL] | solubility [2, 4] [µg/mL] |
| --- | --- | --- | --- |
| C[C@@H](c1c(F)cc2ncccc2c1F)c1cnc2ccc(N3CCNC(=O)C3)nn12 (single isomer, unassigned) [Example 5] | 3.6 | 164 (≈ 402 µM) | 91 (≈ 223 µM) |
| CC(=O)N1CCN(c2ccc3ncc([C@@H](C)c4c(F)cc5ncccc5c4F)n3n2)CC1 [Example 11, 1-(4-{3-[(S)-1-(5,7-Difluoro-quinolin-6-yl)-ethyl]-imidazo[1,2-b]pyridazin-6-yl}-piperazin-1-yl)ethanone] | 7.2 | 1350 (≈ 3100 µM) | 32 (≈ 73.3 µM) |
| C[C@@H](c1cc2cnn(C)c2cc1F)c1cnc2ccc(N3CCNC(=O)C3)nn12 [Example 28, 4-{3-[(S)-1-(6-Fluoro-1-methyl-1H-indazol-5-yl)-ethyl]-imidazo[1,2-b]pyridazin-6-yl}-piperazin-2-one] | 26 | 374 (≈ 951 µM) | 117 (≈ 297 µM) |
| C[C@@H](c1c(F)cc2ncccc2c1F)c1cnc2ccc(N3CCNCC3)nn12 [Example 7, 5,7-Difluoro-6-[(S)-1-(6-piperazin-1-yl-imidazo[1,2-b]pyridazin-3-yl)-ethyl]-quinoline] | 6.4 | 172 (≈ 436 µM) | 248 (≈ 629 µM) |
| C[C@@H](c1c(F)cc2ncccc2c1F)c1cnc2ccc(N3CCN(C)C(=O)C3)nn12 [Example 2, 4-{3-[(S)-1-(5,7-Difluoro-quinolin-6-yl)-ethyl]-imidazo[1,2-b]pyridazin-6-yl}-1-methyl-piperazin-2-one] | 1.7 | 289 (≈ 684 µM) | 29 (≈ 68.6 µM) |
